Measured values: PubChem BioAssay AID2060604 (Molecular Pharmacology Branch, DTP, NCI, 2025)

System: 379773-124-R-J2-PDC complex spheroids, viability % test/control
Assay: Anticancer human tumor 379773-124-R-J2-PDC patient-derived endometrial carcinoma cell line growth inhibition [CLK]
Details: for IC50: curve of first compound; for viability, T/C: stronger effect = lower value
Method in brief: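 Multi-cell-type spheroids combined patient-derived tumor cells with HUVEC endothelial cells and human mesenchymal stem cells. Paired agents were dosed in half-log steps down from about clinical Cmax, or from 10 microM where Cmax was unknown.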
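Also: compound exposure lasted seven days before the viability readout.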
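For viability, T/C in this document: 100% = DMSO vehicle control wells.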

Question: With CC(C)CC(NC(=O)C(Cc1ccccc1)NC(=O)c1cnccn1)B(O)O (configuration not stated) + CN1CCN(c2cc(C(=O)Nc3cc4cc(-c5cnn(C)c5)ccc4cn3)ccn2)CC1 as the molecule, how does the IC50 (second compound 0.0316 µM) read?
Answer: The IC50 was 1.8 nM.

Question: And the IC50 (second compound 0.1 µM)?
Answer: Its IC50 is 1.72 nM.

Question: And the IC50 (second compound 0.316 µM)?
Answer: The IC50 was < 0.949 nM.

Question: And the IC50 (second compound 1 µM)?
Answer: The IC50 was < 0.949 nM.

Question: And the IC50 (second compound 3.16 µM)?
Answer: Its IC50 is < 0.949 nM.

Question: And the IC50 (second compound 10 µM)?
Answer: The IC50 was < 0.949 nM.

Question: What about the viability, T/C (second compound 0.0316 µM, first compound 0.000949 µM) of the same molecule?
Answer: Its viability, T/C is 83.2%.

Question: And the viability, T/C (second compound 0.0316 µM, first compound 0.003 µM)?
Answer: Its viability, T/C is 23.3%.

Question: What about the viability, T/C (second compound 0.0316 µM, first compound 0.00949 µM) of the same molecule?
Answer: Its viability, T/C is 0.24%.

Question: And the viability, T/C (second compound 0.0316 µM, first compound 0.03 µM)?
Answer: Its viability, T/C is 0.17%.

Question: And the viability, T/C (second compound 0.0316 µM, first compound 0.0949 µM)?
Answer: Its viability, T/C is 0.13%.

Question: What about the viability, T/C (second compound 0.0316 µM, first compound 0.3 µM) of the same molecule?
Answer: The viability, T/C was 0.12%.

Question: And the viability, T/C (second compound 0.1 µM, first compound 0.000949 µM)?
Answer: Its viability, T/C is 84.3%.

Question: And the viability, T/C (second compound 0.1 µM, first compound 0.003 µM)?
Answer: Its viability, T/C is 18.2%.

Question: And the viability, T/C (second compound 0.1 µM, first compound 0.00949 µM)?
Answer: Its viability, T/C is 1.22%.

Question: And the viability, T/C (second compound 0.1 µM, first compound 0.03 µM)?
Answer: The viability, T/C was 0.15%.

Question: What about the viability, T/C (second compound 0.1 µM, first compound 0.0949 µM) of the same molecule?
Answer: Its viability, T/C is 0.19%.

Question: And the viability, T/C (second compound 0.1 µM, first compound 0.3 µM)?
Answer: The viability, T/C was 0.11%.

Question: And the viability, T/C (second compound 0.316 µM, first compound 0.000949 µM)?
Answer: Its viability, T/C is 20.7%.

Question: And the viability, T/C (second compound 0.316 µM, first compound 0.003 µM)?
Answer: Its viability, T/C is 1.68%.

Question: What about the viability, T/C (second compound 0.316 µM, first compound 0.00949 µM) of the same molecule?
Answer: The viability, T/C was 0.49%.

Question: What about the viability, T/C (second compound 0.316 µM, first compound 0.03 µM) of the same molecule?
Answer: The viability, T/C was 0.11%.

Question: What about the viability, T/C (second compound 0.316 µM, first compound 0.0949 µM) of the same molecule?
Answer: The viability, T/C was 0.9%.

Question: What about the viability, T/C (second compound 0.316 µM, first compound 0.3 µM) of the same molecule?
Answer: Its viability, T/C is 0.12%.

Question: What about the viability, T/C (second compound 1 µM, first compound 0.000949 µM) of the same molecule?
Answer: Its viability, T/C is 0.18%.

Question: What about the viability, T/C (second compound 1 µM, first compound 0.003 µM) of the same molecule?
Answer: The viability, T/C was 1.45%.

Question: What about the viability, T/C (second compound 1 µM, first compound 0.00949 µM) of the same molecule?
Answer: Its viability, T/C is 0.95%.

Question: And the viability, T/C (second compound 1 µM, first compound 0.03 µM)?
Answer: The viability, T/C was 0.06%.

Question: What about the viability, T/C (second compound 1 µM, first compound 0.0949 µM) of the same molecule?
Answer: Its viability, T/C is 0.3%.

Question: What about the viability, T/C (second compound 1 µM, first compound 0.3 µM) of the same molecule?
Answer: The viability, T/C was 0.08%.

Question: And the viability, T/C (second compound 3.16 µM, first compound 0.000949 µM)?
Answer: Its viability, T/C is 0.24%.

Question: And the viability, T/C (second compound 3.16 µM, first compound 0.003 µM)?
Answer: The viability, T/C was 0.69%.

Question: And the viability, T/C (second compound 3.16 µM, first compound 0.00949 µM)?
Answer: Its viability, T/C is 0.24%.

Question: And the viability, T/C (second compound 3.16 µM, first compound 0.03 µM)?
Answer: The viability, T/C was 0.05%.

Question: What about the viability, T/C (second compound 3.16 µM, first compound 0.0949 µM) of the same molecule?
Answer: The viability, T/C was 0.07%.

Question: And the viability, T/C (second compound 3.16 µM, first compound 0.3 µM)?
Answer: The viability, T/C was 0.09%.

Question: What about the viability, T/C (second compound 10 µM, first compound 0.000949 µM) of the same molecule?
Answer: Its viability, T/C is 1.09%.

Question: What about the viability, T/C (second compound 10 µM, first compound 0.003 µM) of the same molecule?
Answer: Its viability, T/C is 0.98%.

Question: And the viability, T/C (second compound 10 µM, first compound 0.00949 µM)?
Answer: Its viability, T/C is 0.26%.

Question: What about the viability, T/C (second compound 10 µM, first compound 0.03 µM) of the same molecule?
Answer: Its viability, T/C is 2.17%.

Question: What about the viability, T/C (second compound 10 µM, first compound 0.0949 µM) of the same molecule?
Answer: The viability, T/C was 0.59%.

Question: And the viability, T/C (second compound 10 µM, first compound 0.3 µM)?
Answer: The viability, T/C was 0.24%.
